pIC50: −log10 of the molar value. Activity calls are given as the source filed them.

For series [1], the system named is Rattus norvegicus. The series can be described thus: Anesthesia recovery in Sprague-Dawley rat assessed as effect on recovery time of righting reflex at 19 mg/kg administered as continuous infusion followed by maintenance at 3.25 mg/kg/min for 0 to 20 mins, 2.5 mg/kg/min for 20 to 30 mins and 2 mg/kg/min for 30 to 60 mins. Particulars: route par. The series is classed as functional, organism-based.

Series [2] concerns DRG neuron. The series can be described thus: Modulation of CFA-induced male ICR mouse DRG neuron excitability assessed as reduction in action potential's rheobase at 10 uM by whole cell […] assay. It counts as functional, cell-based.
Series [3] in a line: Toxicity in ICR mouse assessed as effect on biochemical parameters at 1.5 times ED50, iv administered as single dose. The series is classed as organism-based. Particulars: in vivo.
A short description of series [4]: Toxicity in Sprague-Dawley rat assessed as effect on creatinine level at 19 mg/kg administered as continuous infusion followed by maintenance at 3.25 mg/kg/min for 0 to 20 mins, 2.5 mg/kg/min for 20 to 30 mins and 2 mg/kg/min for 30 to 60 mins. It counts as organism-based. Particulars: in vivo, other, 1 h, route par.
Another series deals with Cytochrome P450 2D6 (Homo sapiens, UniProt P10635). The series can be described thus: Inhibition of CYP2D6 (unknown origin) using dextromethorphan as substrate at 10 uM. It counts as ADME.
Chain of Cytochrome P450 2D6 (P10635 whole entry): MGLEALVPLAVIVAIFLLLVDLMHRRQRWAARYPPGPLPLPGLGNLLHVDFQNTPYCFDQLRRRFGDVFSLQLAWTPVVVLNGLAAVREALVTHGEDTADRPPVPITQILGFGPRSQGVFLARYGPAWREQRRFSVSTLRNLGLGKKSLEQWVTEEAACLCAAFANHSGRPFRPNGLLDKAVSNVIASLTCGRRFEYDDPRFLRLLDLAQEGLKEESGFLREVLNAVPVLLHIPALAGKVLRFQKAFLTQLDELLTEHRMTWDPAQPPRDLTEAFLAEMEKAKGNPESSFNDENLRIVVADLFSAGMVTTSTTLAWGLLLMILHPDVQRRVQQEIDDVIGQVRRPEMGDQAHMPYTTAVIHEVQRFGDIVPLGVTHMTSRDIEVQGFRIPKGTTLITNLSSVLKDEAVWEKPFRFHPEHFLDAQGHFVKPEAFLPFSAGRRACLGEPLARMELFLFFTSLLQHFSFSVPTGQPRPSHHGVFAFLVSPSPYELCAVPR
The target in series [5] is Sodium channel protein type 10 subunit alpha (Homo sapiens, UniProt Q9Y5Y9). Put plainly: Binding affinity to Nav1.8 (unknown origin) expressed in HEK293T cells assessed as retention time of compound at 1 mg/ml by cell membrane chromatography. It counts as cell membranes.
Chain of Sodium channel protein type 10 subunit alpha (Q9Y5Y9 whole entry, looked up, the tested form may be a part): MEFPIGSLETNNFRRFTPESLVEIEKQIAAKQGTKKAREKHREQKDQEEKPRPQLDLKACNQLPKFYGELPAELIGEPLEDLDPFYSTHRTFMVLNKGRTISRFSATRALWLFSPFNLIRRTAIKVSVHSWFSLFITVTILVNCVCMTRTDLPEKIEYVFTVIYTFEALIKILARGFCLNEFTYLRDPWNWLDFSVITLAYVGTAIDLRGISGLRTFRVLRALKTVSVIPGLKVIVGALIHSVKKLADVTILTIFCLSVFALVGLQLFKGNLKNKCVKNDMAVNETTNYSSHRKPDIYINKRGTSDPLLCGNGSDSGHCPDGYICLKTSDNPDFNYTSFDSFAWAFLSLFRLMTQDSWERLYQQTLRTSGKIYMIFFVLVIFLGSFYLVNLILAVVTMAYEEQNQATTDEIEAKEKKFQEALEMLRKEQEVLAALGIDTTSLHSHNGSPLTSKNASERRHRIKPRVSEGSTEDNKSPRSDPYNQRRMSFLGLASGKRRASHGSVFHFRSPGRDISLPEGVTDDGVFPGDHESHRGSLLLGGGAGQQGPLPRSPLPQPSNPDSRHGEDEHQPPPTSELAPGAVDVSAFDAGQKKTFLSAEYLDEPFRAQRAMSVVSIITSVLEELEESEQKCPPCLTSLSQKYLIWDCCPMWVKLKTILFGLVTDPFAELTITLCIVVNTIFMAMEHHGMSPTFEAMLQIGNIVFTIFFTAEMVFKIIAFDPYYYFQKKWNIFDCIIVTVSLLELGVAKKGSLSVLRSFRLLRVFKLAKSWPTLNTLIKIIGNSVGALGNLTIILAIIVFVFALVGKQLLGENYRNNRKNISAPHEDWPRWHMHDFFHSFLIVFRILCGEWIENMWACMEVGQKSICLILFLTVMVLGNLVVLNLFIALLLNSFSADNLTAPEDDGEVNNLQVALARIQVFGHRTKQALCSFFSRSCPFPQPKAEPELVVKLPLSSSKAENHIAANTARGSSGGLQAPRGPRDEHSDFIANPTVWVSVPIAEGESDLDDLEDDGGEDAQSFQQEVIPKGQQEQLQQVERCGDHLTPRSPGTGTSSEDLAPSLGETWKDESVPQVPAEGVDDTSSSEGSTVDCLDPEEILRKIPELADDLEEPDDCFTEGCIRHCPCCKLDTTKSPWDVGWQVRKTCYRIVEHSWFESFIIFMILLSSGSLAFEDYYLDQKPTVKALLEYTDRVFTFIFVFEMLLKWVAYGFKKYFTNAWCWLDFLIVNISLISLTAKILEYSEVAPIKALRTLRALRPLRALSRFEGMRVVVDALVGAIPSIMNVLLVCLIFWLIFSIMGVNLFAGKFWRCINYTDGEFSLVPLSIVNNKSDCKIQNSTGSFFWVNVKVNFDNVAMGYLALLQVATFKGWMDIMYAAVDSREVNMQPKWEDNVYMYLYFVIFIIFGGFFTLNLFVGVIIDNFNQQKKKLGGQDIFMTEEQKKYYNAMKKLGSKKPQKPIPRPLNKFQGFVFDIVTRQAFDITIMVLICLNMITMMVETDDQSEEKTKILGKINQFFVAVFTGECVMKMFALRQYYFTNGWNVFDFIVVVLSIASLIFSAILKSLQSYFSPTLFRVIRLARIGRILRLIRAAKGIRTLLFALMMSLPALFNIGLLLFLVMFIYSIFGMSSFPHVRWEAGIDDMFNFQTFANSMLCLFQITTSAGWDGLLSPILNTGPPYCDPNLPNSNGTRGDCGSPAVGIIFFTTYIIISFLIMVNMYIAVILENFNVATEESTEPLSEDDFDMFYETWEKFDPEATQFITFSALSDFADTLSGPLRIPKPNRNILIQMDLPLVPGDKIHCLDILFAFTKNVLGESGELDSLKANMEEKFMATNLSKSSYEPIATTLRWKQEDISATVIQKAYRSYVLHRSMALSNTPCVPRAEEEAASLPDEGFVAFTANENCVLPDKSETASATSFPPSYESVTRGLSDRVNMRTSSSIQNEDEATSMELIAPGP
Series [6] relates to Rattus norvegicus. Put plainly: Analgesic activity in Sprague-Dawley rat model of thermal nociception assessed as increase in hind-paw withdrawal latency at 19 mg/kg administered as continuous infusion followed by maintenance at 3.25 mg/kg/min for 0 to 20 mins, 2.5 mg/kg/min for 20 to 30 mins and 2 mg/kg/min for 30 to 60 mins. The series is classed as functional, organism-based. The settings on record: route par, TDE = time-dependent effect.

A short description of series [7]: Toxicity in Sprague-Dawley rat assessed as ALT level at 19 mg/kg administered as continuous infusion followed by maintenance at 3.25 mg/kg/min for 0 to 20 mins, 2.5 mg/kg/min for 20 to 30 mins and 2 mg/kg/min for 30 to 60 mins. It counts as organism-based. Particulars: in vivo, other, 1 h, route par.
A short description of series [8]: Toxicity in Sprague-Dawley rat assessed as urea level at 19 mg/kg administered as continuous infusion followed by maintenance at 3.25 mg/kg/min for 0 to 20 mins, 2.5 mg/kg/min for 20 to 30 mins and 2 mg/kg/min for 30 to 60 mins. It counts as organism-based. Particulars: in vivo, other, 1 h, route par.
The nature of series [9]: Toxicity in Sprague-Dawley rat assessed as reduction in heart rate at 19 mg/kg administered as continuous infusion followed by maintenance at 3.25 mg/kg/min for 0 to 20 mins, 2.5 mg/kg/min for 20 to 30 mins and 2 mg/kg/min for 30 to 60 mins by electrocardiogram recording. Particulars: in vivo, other, 1 h, route par. It counts as organism-based. More on the design: scale not given: the % may be the effect or the level left.

Series [10] deals with Mus musculus. Put plainly: Analgesic effect in ICR mouse model of CFA-induced chronic inflammatory pain assessed as increase in paw withdrawal threshold at 0.07 mmol/kg, ip measured upto 90 mins by Von Frey test. The series is classed as functional, organism-based.
The test system of series [11] is DRG neuron. Put plainly: Modulation of CFA-induced male ICR mouse DRG neuron excitability assessed as reduction in action potential firing frequency at 10 uM by whole cell […] assay. It counts as functional, cell-based.
A short description of series [12]: Toxicity in Sprague-Dawley rat assessed as effect on respiratory frequency at 19 mg/kg administered as continuous infusion followed by maintenance at 3.25 mg/kg/min for 0 to 20 mins, 2.5 mg/kg/min for 20 to 30 mins and 2 mg/kg/min for 30 to 60 mins and measured every 5 mins for 60 mins by whole-body plethysmography. It counts as organism-based. The settings on record: in vivo, other, 1 h, route par.

The subject of series [13] is DRG neuron. The series can be described thus: Modulation of CFA-induced male ICR mouse DRG neuron excitability assessed as reduction in resting membrane potential at 10 uM by whole cell […] assay. It counts as functional, cell-based.
Series [14] deals with Sodium channel protein type 5 subunit alpha (Homo sapiens, UniProt Q14524). The series can be described thus: Inhibition of Nav1.5 channel (unknown origin) at resting state at -120 mV conditioning pulse by voltage clamp electrophysiological recording. It counts as toxicity.
Chain of Sodium channel protein type 5 subunit alpha (Q14524 whole entry): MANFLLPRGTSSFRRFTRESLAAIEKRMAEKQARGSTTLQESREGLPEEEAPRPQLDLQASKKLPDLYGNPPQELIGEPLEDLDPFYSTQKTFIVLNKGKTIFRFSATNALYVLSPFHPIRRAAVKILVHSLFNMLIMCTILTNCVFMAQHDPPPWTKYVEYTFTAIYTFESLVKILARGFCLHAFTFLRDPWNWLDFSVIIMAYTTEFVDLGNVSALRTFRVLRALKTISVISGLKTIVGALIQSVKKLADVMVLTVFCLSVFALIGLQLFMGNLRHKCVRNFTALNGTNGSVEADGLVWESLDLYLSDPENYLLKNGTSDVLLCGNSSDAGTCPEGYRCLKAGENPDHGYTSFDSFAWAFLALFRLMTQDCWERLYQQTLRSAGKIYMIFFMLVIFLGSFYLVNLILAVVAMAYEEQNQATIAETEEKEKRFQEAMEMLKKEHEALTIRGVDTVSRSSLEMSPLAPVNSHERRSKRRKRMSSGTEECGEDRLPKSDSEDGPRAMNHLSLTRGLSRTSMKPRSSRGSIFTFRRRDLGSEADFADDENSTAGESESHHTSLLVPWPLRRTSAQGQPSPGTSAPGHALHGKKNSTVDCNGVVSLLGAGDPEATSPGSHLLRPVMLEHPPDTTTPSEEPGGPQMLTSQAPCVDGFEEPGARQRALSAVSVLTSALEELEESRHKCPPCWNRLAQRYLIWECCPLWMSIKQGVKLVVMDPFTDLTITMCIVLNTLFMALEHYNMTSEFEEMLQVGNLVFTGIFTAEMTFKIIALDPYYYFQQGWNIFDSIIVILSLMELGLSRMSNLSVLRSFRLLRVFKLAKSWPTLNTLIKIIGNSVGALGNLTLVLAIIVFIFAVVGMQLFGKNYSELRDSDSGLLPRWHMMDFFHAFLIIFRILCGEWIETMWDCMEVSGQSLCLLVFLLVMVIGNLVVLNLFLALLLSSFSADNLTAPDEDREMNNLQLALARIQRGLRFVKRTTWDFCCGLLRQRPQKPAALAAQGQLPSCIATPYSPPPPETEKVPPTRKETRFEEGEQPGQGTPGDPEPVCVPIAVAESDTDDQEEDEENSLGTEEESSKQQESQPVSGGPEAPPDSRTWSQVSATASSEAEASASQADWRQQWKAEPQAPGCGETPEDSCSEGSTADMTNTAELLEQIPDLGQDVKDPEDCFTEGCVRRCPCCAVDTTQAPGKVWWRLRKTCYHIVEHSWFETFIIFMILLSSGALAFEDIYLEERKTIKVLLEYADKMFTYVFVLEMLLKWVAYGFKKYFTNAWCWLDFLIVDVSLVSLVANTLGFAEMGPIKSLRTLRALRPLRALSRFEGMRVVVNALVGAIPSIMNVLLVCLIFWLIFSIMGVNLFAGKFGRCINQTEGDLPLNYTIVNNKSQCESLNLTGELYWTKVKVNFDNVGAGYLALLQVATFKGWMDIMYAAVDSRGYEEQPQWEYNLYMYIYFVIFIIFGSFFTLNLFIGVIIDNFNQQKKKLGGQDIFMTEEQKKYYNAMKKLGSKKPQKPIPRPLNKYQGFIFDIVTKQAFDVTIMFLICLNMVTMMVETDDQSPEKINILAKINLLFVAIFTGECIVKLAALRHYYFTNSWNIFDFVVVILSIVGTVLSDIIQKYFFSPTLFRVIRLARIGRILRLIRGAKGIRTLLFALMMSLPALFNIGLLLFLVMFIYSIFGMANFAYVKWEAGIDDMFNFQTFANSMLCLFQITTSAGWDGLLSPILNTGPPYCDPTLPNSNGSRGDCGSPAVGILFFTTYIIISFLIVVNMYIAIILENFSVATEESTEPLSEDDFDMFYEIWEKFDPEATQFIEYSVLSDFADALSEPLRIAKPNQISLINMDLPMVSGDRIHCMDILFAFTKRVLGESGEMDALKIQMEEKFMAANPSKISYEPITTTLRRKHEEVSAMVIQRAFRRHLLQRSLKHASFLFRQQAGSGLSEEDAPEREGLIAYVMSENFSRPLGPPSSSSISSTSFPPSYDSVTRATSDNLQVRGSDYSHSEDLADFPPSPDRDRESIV
The test system of series [15] is Mus musculus. The series can be described thus: Antiseizure activity in iv dosed ICR mouse model of PTZ-induced acute seizure assessed as prolongation of latency time before onset of first convulsion preadministered for 1 min followed by PTZ treatment. The series is classed as functional, organism-based.
The nature of series [16]: Stability of compound in 0.1M PBS at 1 mg/ml measured upto 360 mins by HPLC analysis. The series is classed as physicochemical. The settings on record: buffer, 6 h.
The nature of series [17]: Stability of compound assessed as porcine liver esterase mediated propofol release by measuring half life at 1 mg/ml by HPLC analysis. It counts as ADME, Sus scrofa. Particulars: pig, isolated protein.
Series [18] in a line: Drug metabolism in human liver microsomes assessed as propofol release by measuring half life at 1 mg/ml measured upto 360 mins by LC-MS analysis. The series is classed as ADME, Microsome. The settings on record: 6 h. (In general: Liver microsomes are a subcellular fraction often used to study metabolism.)
The nature of series [19]: Toxicity in Sprague-Dawley rat assessed as effect on minute ventilation box at 19 mg/kg administered as continuous infusion followed by maintenance at 3.25 mg/kg/min for 0 to 20 mins, 2.5 mg/kg/min for 20 to 30 mins and 2 mg/kg/min for 30 to 60 mins and measured every 5 mins for 60 mins by whole-body plethysmography. The settings on record: in vivo, other, 1 h, route par. It counts as organism-based.

Another series addresses Cytochrome P450 3A4 (Homo sapiens, UniProt P08684). The series can be described thus: Inhibition of CYP3A4 (unknown origin) using midazolam as substrate at 10 uM. The series is classed as ADME.
The target in the next series is T1, Cocaine esterase (Homo sapiens, UniProt O00748).
T1 sequence (O00748 whole entry): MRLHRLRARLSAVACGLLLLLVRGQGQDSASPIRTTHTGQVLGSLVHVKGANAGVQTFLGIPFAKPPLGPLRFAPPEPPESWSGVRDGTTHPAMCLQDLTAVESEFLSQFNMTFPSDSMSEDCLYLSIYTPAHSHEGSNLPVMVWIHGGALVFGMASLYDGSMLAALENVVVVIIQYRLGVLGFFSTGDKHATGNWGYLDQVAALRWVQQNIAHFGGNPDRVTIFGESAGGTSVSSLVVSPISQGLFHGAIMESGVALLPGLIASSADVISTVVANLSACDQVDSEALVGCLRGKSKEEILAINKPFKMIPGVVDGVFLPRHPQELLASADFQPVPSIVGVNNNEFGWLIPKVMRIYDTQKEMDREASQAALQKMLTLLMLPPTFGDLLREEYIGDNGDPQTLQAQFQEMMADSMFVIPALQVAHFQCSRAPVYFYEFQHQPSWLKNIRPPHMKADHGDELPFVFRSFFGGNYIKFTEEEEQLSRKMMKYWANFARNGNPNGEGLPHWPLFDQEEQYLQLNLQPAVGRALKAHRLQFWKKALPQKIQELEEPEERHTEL
Put plainly: Drug metabolism assessed as human CES2-mediated propofol release at 1 mg/ml measured upto 240 mins by LC-MS analysis. It counts as ADME. Particulars: 4 h.

Series [20] is described as follows: Toxicity in ICR mouse assessed as survival rate at 1.5 times ED50 administered intravenously. Particulars: in vivo, route iv.
A short description of series [21]: Toxicity in Sprague-Dawley rat assessed as effect on amount of respiration at 19 mg/kg administered as continuous infusion followed by maintenance at 3.25 mg/kg/min for 0 to 20 mins, 2.5 mg/kg/min for 20 to 30 mins and 2 mg/kg/min for 30 to 60 mins and measured every 5 mins for 60 mins by whole-body plethysmography. It counts as organism-based. The settings on record: in vivo, other, 1 h, route par.

Chain of Cytochrome P450 3A4 (P08684 whole entry): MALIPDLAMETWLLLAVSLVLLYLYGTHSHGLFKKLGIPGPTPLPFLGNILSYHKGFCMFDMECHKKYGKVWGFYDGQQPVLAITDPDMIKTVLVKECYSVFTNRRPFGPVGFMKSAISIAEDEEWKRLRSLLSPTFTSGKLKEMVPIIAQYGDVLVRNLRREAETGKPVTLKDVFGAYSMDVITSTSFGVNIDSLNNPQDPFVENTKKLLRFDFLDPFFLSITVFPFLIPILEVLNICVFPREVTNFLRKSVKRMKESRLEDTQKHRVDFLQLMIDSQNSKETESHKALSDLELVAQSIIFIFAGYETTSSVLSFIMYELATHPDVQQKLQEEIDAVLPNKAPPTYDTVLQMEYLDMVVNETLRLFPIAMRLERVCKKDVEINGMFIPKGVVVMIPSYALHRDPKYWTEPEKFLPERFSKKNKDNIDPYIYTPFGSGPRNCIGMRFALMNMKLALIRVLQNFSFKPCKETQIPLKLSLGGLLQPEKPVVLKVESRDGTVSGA

As a reminder, the pIC50 is the IC50 on a negative log10 scale, so that one unit is a factor of ten. Take `CCN(CC)CCOC(=O)Oc1c(C(C)C)cccc1C(C)C.Cl`: the result with Rattus norvegicus [1], in the series with Mus musculus [10], with DRG neuron [11] and in the series with Mus musculus [15] was Active. In addition, the result in the series with DRG neuron [2] and in the series with DRG neuron [13] was inactive. For the same compound, the Activity entry is “Non-Toxic” in series [3]; “Non-Toxic” in [4]; “Tde” in the series with Rattus norvegicus [6]; 52.47 U/L in series [7]; 11.03 mmol/L in series [8]; below 20% in [9]. Also, the Activity result in series [12], in [19] and in series [21] was “Non-Toxic” each time. Moreover, the “inhibition (INH)” value against Cytochrome P450 2D6 and against Cytochrome P450 3A4 was “Not Active” throughout. Moreover, the Retention time in series [5] is 112 min. This compound had a pIC50 in series [14] of 4.63. For the same compound, the Stability entry in series [16] is “Stable”. Besides, the t1/2 stood at 8.609 min in [17] and 54.63 min in series [18]. For the same compound, the Drug metabolism entry on Cocaine esterase is reported as “Metabolite_Detected”. For the same compound, in series [20], the survival amounted to 100%.

For the origin of these results see ChEMBL document CHEMBL5523756, “Molecular Transformers: Adaptive Multitarget Ligands for Esterase-Induced Transition from Analgesics to Anesthetics” (J Med Chem, 2024).
